Test results published in patent publication US20150174202A1, “Methods and Compositions for Modulating Beta Cell Proliferation” (The Board of Trustees of the Leland Stanford Junior …, priority 2011, published 2015).

Legend:
Format in all cases: cell-based
Pdgfr-α = target: T1, Pdgfr-α (Mus musculus, UniProt P26618); test: Phosphorylation of Pdgfr-α in cultured mouse islets (western blot); details: 3-week-old mouse islets exposed to PDGF-AA
T1 construct: endogenous in cells; host or cells: primary pancreatic islets from C57BL/6 mice (3-week-old wild-type islets), cultured ex vivo
Procedure: Mouse pancreatic islets were purified as described in Chen et al. (2009) Genes Dev. 23, 975-985 and used immediately for assays described in the text. To study Ezh2 induction in cultured islets exposed to mitogens, freshly isolated islets from 2-3-week old, and 7-12-month old C57BL/6 mice were recovered and equilibrated overnight at 37° C., 5% CO2 in RPMI-1640 medium supplemented with 0.5% fetal bovine serum (FBS), 0.2% bovine albumin (BSA) and 2% penicillin/streptomycin. Afterwards, islets were distributed into microplates or dishes, and treated with recombinant human PDGF-AA, prolactin or insulin (Sigma), with or without addition of pharmacological inhibitors, including Sunitinib (Selleck), Vargatef (Selleck), U0126 (Sigma), LY294002 (Sigma) or U-73122 (Sigma) at the indicated concentrations. Two days later, islets were harvested for RNA or protein extraction for real-time RTPCR or western blot analyses. To detect phosphorylation of Pdgfr-α by western blot, islets were exposed to PDGF-AA (with or without indicated pharmacological inhibitors) for 90 min before islet harvesting and protein extraction. […] Immunostaining of BrdU and insulin was performed on processed islets, and β-cell proliferation rate was determined by quantifying percentage of insulin+ cells with BrdU+. […]

EZH2 = test: EZH2/EZH1 mRNA in cultured human islets (real-time RT-PCR); details: PDGF-AA 50 ng/ml, 2 days
Procedure: Total RNA from freshly isolated or cultured islets after indicated treatments were purified using the Absolutely RNA miniprep purification kit (Stratagene) according to the manufacturer's instructions. RNA concentration was measured with a RiboGreen RNA quantification assay (Invitrogen). One-step quantitative RT-PCR was performed and analysed using an ABI Prism 7300 detection system (Applied Biosystems) with TaqMan one-step RTPCR Master Mix Reagents and appropriate amounts (10-100 ng) of islet total RNA as the template. We calculated the ratio of mRNA for the gene of interest to the amount of internal control mRNA of peptidylprolyl isomerase A (cyclophilin A, PPIA), and then normalized the ratio for each gene to its median. For islet studies, human islets were isolated either at Pittsburgh University Medical Center or the University of Alabama, Birmingham. Eight independent human islet preparations from juvenile donors at the age of 8 months, 1.0, 1.5, 2, 3, 4, 5 and 6 years, and three adult islet preparations from donors at the age of 39, 48 and 56 years were used in this study. After isolation, fresh islets were hand-picked and transferred to RPMI-1640 medium supplemented with 0.5% FBS, 0.2% BSA and 2% penicillin/streptomycin for an overnight recovery before experiments. […] To detect in vitro human islet β-cell proliferation stimulated by PDGF-AA, human islets were exposed to 50 μM BrdU for 24 h. Afterwards, human islets were processed in a similar way as in mouse islet studies for immunostaining of insulin, glucagon, PDX1 and BrdU. β-Cell proliferation rate was determined by quantifying percentage of insulin+ cells with BrdU+. More than 50 islets per group were counted for determining cultured human islet β-cell proliferation rate.

human EZH2 locus = test: EZH2 locus ChIP analysis with anti-E2F1 antibody in human juvenile islets; details: juvenile human islets exposed to PDGF-AA
Procedure: ChIPs were performed using a chromatin immunoprecipitation kit from Millipore. Briefly, freshly isolated mouse pancreatic islets or cultured human islets after the indicated treatments were pooled, and fixed with 2% formaldehyde for cross-linking for 20 min at room temperature (25° C.). After washing, islets were dissolved in SDS lysis buffer containing a proteinase inhibitor cocktail followed by sonication to shear the chromatin. Precleared chromatin from 150 to 300 islets was used for each ChIP sample with incubation of 1 to 5 μg of the appropriate antibodies at 4° C. overnight. The antibodies used in the ChIP assays included mouse anti-E2F1 (Millipore), rabbit anti-E2F4 (Santa Cruz Biotechnologies), rabbit or mouse polyclonal IgG (Millipore). […] After measurement of DNA concentration by PicoGreen DNA assay (Invitrogen), equivalent amounts of chromatin DNA from every sample was quantified by real-time qPCR in ABI Prism 7300 detection system (Applied Biosystems). […] Afterwards, human islets were processed in a similar way as in mouse islet studies for immunostaining of insulin, glucagon, PDX1 and BrdU. β-Cell proliferation rate was determined by quantifying percentage of insulin+ cells with BrdU+. More than 50 islets per group were counted for determining cultured human islet β-cell proliferation rate.

T1 sequence (P26618 25-1089): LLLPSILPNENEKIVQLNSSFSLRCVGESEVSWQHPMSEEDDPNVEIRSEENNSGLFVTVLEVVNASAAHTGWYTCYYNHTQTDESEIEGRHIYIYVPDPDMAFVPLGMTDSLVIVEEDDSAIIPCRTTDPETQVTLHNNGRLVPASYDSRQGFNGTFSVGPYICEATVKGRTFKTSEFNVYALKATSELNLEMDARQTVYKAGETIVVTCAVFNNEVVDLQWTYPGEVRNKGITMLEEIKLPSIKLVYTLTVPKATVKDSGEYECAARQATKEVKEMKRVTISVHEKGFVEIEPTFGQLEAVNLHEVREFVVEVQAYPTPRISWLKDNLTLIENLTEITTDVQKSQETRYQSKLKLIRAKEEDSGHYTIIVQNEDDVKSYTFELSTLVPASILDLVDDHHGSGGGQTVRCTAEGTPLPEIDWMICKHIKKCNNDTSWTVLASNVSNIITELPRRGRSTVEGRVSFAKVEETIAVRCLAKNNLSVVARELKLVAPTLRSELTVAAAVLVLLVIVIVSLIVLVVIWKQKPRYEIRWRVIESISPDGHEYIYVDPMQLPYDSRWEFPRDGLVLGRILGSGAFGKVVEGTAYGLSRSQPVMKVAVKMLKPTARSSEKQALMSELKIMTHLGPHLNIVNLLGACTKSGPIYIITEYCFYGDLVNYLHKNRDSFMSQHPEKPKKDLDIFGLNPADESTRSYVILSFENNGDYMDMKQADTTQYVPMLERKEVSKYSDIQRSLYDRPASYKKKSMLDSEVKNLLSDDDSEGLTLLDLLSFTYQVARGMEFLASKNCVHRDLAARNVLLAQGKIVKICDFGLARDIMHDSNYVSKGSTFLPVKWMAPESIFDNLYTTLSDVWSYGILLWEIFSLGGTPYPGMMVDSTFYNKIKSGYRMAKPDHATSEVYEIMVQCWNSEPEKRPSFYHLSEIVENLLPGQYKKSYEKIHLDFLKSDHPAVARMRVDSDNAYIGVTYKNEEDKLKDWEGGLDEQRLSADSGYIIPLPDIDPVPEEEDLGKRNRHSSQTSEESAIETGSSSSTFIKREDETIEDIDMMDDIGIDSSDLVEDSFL

phospho-Pdgfr-α levels (Pdgfr-α): increased
Substance: PDGF-AA: recombinant human PDGF-AA, a homodimer of PDGF alpha polypeptides
EZH2 mRNA levels (EZH2; adult human islets): not induced
EZH2 mRNA levels (EZH2; juvenile human islets): increased
association of E2F1 with the human EZH2 locus (ChIP) (human EZH2 locus): stimulated association of E2F1
